Reference: PMC6150820 (ACS chemical biology, 2018)

Assays:
[1] = biological target: T1, E. faecalis Fsr QS circuit (gelE promoter) (Enterococcus faecalis, UniProt A0ACD6TCR9); details: cited from earlier work; for EC50: read-out: EC50 [95% CI], previously published analog shown for comparison
[2] = biological target: T1, E. faecalis Fsr QS circuit (gelE promoter); assay type: cell-based, E. faecalis TX5274; details: EC50 ratio relative to GBAP; for Fold Change relative to GBAP, loss in potency: parentheses = loss
[3] = tested on: wild type E. faecalis cells (strain TX4002); test: Biofilm formation phenotypic assay; assay type: cell-based; details: exogenous GBAP added to wild type TX4002 cells

Substance | EC50 [1] | Fold Change relative to GBAP, loss in potency [2] | agonist activity [1] | Fold Change relative to GBAP, improvement in potency ([2]; no parentheses = improvement) | increase in the amount of biofilm formation [3]
GBAP-f7 [Peptide 4] | 4.97 nM | – | – | – | –
GBAP-Des(Q1N2) lactam (SPNIFGQWM; head-to-tail lactam cyclization) [Peptide 11] | > 10000 nM | (> 10,000) fold | completely inactive | – | –
Ac-GBAP-Des(Q1N2) (SPNIFGQWM; not fully specified; N-acetyl tail; lactone macrocycle) [Peptide 10] | 1.01 nM | – | – | 1.1 fold | –
GBAP-G8A [Peptide 2] | > 10000 nM | (> 10,000) fold | complete loss of activity | – | –
GBAP (SPNIFGQWM; not fully specified; N-terminal QN tail; lactone macrocycle) [Peptide 1, reference compound] | 1.15 nM | – | – | – | 30–50%
GBAP-s3 [Peptide 12] | 45.1 nM | – | – | – | –
